Assay results taken from ChEMBL document CHEMBL5375956, “Discovery of Pyrazolo[1,5-a]pyrimidine Derivative as a Novel and Selective ALKBH5 Inhibitor for the Treatment of AML” (J Med Chem, 2023).

Experiments:
[1] = biological target: Alpha-ketoglutarate-dependent dioxygenase FTO (Homo sapiens, UniProt Q9C0B1); test: Inhibition of FTO (32 to 505 residues)(unknown origin) expressed in Escherichia coli BL21(DE3) by FP assay
RNA demethylase ALKBH5 [2] = biological target: T1, RNA demethylase ALKBH5 (Homo sapiens, UniProt Q6P6C2); test: Inhibition of ALKBH5 (66 to 292 residues)(unknown origin) expressed in Escherichia coli BL21(DE3) using 5'-ATTGTCA(m6A)CAGCAGA-FAM-3' as substrate incubated for 30 mins by FP assay
Target sequence in this assay (Q6P6C2 whole entry, the tested form may be a part): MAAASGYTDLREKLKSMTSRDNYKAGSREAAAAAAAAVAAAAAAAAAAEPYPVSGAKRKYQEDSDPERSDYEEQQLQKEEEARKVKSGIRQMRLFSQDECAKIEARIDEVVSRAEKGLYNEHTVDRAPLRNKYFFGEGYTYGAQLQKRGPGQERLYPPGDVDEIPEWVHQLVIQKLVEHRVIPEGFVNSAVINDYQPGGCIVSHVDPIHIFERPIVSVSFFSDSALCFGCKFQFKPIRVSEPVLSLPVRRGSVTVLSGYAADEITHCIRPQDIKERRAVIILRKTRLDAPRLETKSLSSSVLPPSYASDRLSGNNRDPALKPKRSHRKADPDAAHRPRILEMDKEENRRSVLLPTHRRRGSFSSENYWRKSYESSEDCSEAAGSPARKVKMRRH

RNA demethylase ALKBH5 [3] = biological target: T1, RNA demethylase ALKBH5; test: Inhibition of ALKBH5 (66 to 292 residues)(unknown origin) expressed in Escherichia coli BL21(DE3) using 5'-ATTGTCA(m6A)CAGCAGA-FAM-3' as substrate incubated for 30 mins in presence of 20 uM of 2-OG by FP based competitive binding assay
Target sequence in this assay (Q6P6C2 whole entry, the tested form may be a part): as above

RNA demethylase ALKBH5 [4] = biological target: T1, RNA demethylase ALKBH5; test: Inhibition of ALKBH5 (66 to 292 residues)(unknown origin) expressed in Escherichia coli BL21(DE3) using 5'-ATTGTCA(m6A)CAGCAGA-FAM-3' as substrate incubated for 30 mins in presence of 2 uM of 2-OG by FP based competitive binding assay
Target sequence in this assay (Q6P6C2 whole entry, the tested form may be a part): as above

RNA demethylase ALKBH5 [5] = biological target: T1, RNA demethylase ALKBH5; test: Inhibition of ALKBH5 (66 to 292 residues)(unknown origin) expressed in Escherichia coli BL21(DE3) using 5'-ATTGTCA(m6A)CAGCAGA-FAM-3' as substrate incubated for 30 mins in presence of 0.2 uM of 2-OG by FP based competitive binding assay
Target sequence in this assay (Q6P6C2 whole entry, the tested form may be a part): as above

RNA demethylase ALKBH5 [6] = biological target: T1, RNA demethylase ALKBH5; test: Inhibition of ALKBH5 (66 to 292 residues)(unknown origin) expressed in Escherichia coli BL21(DE3) using 5'-ATTGTCA(m6A)CAGCAGA-FAM-3' as substrate incubated for 30 mins in presence of 200 uM of 2-OG by FP based competitive binding assay
Target sequence in this assay (Q6P6C2 whole entry, the tested form may be a part): as above

RNA demethylase ALKBH5 [7] = biological target: T1, RNA demethylase ALKBH5; test: Binding affinity to ALKBH5 (66 to 292 residues)(unknown origin) expressed in Escherichia coli BL21(DE3) assessed as increase in melting temperature incubated for 30 mins by thermal shift assay
Target sequence in this assay (Q6P6C2 2-394 limits assumed): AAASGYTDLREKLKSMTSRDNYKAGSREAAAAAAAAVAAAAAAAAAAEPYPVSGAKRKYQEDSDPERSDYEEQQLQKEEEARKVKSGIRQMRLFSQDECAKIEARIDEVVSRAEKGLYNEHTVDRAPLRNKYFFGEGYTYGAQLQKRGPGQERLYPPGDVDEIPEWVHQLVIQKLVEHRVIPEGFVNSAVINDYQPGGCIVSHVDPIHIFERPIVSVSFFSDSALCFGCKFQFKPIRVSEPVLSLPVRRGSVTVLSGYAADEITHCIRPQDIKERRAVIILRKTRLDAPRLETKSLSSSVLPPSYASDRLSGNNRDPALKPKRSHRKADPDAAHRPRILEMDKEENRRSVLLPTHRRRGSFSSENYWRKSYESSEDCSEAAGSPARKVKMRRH

Chain of Alpha-ketoglutarate-dependent dioxygenase FTO (Q9C0B1 whole entry, the tested form may be a part): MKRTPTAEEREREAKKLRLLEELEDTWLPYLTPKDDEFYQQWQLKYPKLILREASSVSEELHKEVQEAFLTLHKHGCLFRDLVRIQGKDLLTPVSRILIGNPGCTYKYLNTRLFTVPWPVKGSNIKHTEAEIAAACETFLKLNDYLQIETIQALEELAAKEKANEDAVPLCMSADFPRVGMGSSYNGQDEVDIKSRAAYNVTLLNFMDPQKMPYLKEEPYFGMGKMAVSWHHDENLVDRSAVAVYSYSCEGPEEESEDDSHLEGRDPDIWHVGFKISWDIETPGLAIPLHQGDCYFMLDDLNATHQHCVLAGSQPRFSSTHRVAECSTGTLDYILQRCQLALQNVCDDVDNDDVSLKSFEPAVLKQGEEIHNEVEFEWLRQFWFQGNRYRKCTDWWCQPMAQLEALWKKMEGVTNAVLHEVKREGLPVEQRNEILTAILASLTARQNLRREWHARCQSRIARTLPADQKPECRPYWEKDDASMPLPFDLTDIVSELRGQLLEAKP

IC50 [1] | IC50 (RNA demethylase ALKBH5 [2]) | SMILES | other results
> 200 µM | > 200 µM | COc1ccc([N+](=O)[O-])cc1C(=O)c1cnc2cc(-c3ccc(Cl)cc3)nn2c1 | 
> 200 µM | 41 µM | Cc1ccc(COC(=O)c2ccc(-c3cc4ncc(C(=O)c5cc([N+](=O)[O-])ccc5O)cn4n3)cc2)cc1 | 
> 200 µM | 24.6 µM | O=C(c1cnc2cc(-c3cccc(Cl)c3)nn2c1)c1cc([N+](=O)[O-])ccc1O | 
> 200 µM | 102 µM | O=C(c1cnc2cc(-c3ccccc3Cl)nn2c1)c1cc([N+](=O)[O-])ccc1O | 
> 200 µM | 62.7 µM | O=C(c1cnc2cc(-c3ccc(Cl)cc3)nn2c1)c1cccc([N+](=O)[O-])c1O | 
> 200 µM | > 200 µM | O=C(c1cnc2cc(-c3ccc(Cl)cc3)nn2c1)c1cc(C(F)(F)F)ccc1O | 
16.6 µM | 46.4 µM | O=C(c1cnc2cc(-c3ccc(O)cc3)nn2c1)c1cc([N+](=O)[O-])ccc1O | 
 | 67.7 µM | O=C(O)c1ccnc(C(=O)NS(=O)(=O)c2ccccc2)c1 | IC50 (RNA demethylase ALKBH5 [3]): 211 µM; IC50 (RNA demethylase ALKBH5 [4]): 135 µM; IC50 (RNA demethylase ALKBH5 [5]): 87.6 µM; IC50 (RNA demethylase ALKBH5 [6]): 269 µM
> 200 µM | 7.88 µM | O=C(OCc1ccccc1)c1ccc(-c2cc3ncc(C(=O)c4cc([N+](=O)[O-])ccc4O)cn3n2)cc1 | 
> 200 µM | 23.3 µM | O=C(c1cnc2cc(-c3ccc(C(F)(F)F)cc3)nn2c1)c1cc([N+](=O)[O-])ccc1O | 
> 200 µM | 15.6 µM | O=C(c1cnc2cc(-c3ccc(Cl)cc3)nn2c1)c1cc([N+](=O)[O-])ccc1O | ΔTm (RNA demethylase ALKBH5 [7]): > 1 °C
> 200 µM | 141 µM | O=C(O)c1ccc(O)c(C(=O)c2cnc3cc(-c4ccc(Cl)cc4)nn3c2)c1 | 
8.39 µM | 14.4 µM | O=C(c1cnc2cc(-c3ccc(Cl)cc3)nn2c1)c1c(O)ccc([N+](=O)[O-])c1O | 
> 200 µM | > 200 µM | O=C(c1cnc2cc(-c3ccc(Cl)cc3)nn2c1)c1ccccc1O | 
> 200 µM | 9.12 µM | COC(=O)c1ccc(-c2cc3ncc(C(=O)c4cc([N+](=O)[O-])ccc4O)cn3n2)cc1 | 
> 200 µM | 10.7 µM | O=C(OCc1ccc(Cl)cc1)c1ccc(-c2cc3ncc(C(=O)c4cc([N+](=O)[O-])ccc4O)cn3n2)cc1 | 
> 200 µM | 4.64 µM | O=C(OCc1ccc(C(F)(F)F)cc1)c1ccc(-c2cc3ncc(C(=O)c4cc([N+](=O)[O-])ccc4O)cn3n2)cc1 | 
> 200 µM | > 200 µM | Cc1ccc(-c2cc3ncc(C(=O)c4cc([N+](=O)[O-])ccc4O)cn3n2)cc1 | 
5.98 µM | 56.5 µM | O=C(O)c1ccc(-c2cc3ncc(C(=O)c4cc([N+](=O)[O-])ccc4O)cn3n2)cc1 | 
 | 45.1 µM | O=C(c1cnc2cc(-c3ccccc3)nn2c1)c1cc([N+](=O)[O-])ccc1O | 
